Measured values published in patent US6696494B2, “α-hydroxyarylbutanamine inhibitors of aspartyl protease” (Enanta Pharmaceuticals, Inc., priority 2001, dated 2004).

The compounds below were run against HIV-1 protease (Human immunodeficiency virus type 1 group M subtype B, UniProt P04585) (assay: Inhibition of microbial expressed viral protease (HIV-1 protease), method of Toth and Marshall).
Type: biochemical
Description: Biological Assay for Inhibition of Microbial Expressed Viral Protease
The inhibition constants against HIV-1 protease were measured using the method described by M. V. Toth and G. R. Marshall, Int. J. Peptide protein Res., 1990, 544. The method described M. W. Pennington et al., Peptides 1990, Gimet, E. and D. Andrew, Eds., Escom; Leiden, Netherlands (1990) may also be used. The potency is measured as IC50in μM. The person of skill would accept these tests as predictive of the compounds' utility in vivo to treat HIV infected patients.
Work on `COc1cccc(OC)c1OCC(=O)N[C@@H](Cc1ccccc1)[C@H](O)CCc1ccccc1C(=O)NC(C)(C)C` [Example 001210] yielded an IC50 of 100 to 10000 nM. For `CC(C)(C)NC(=O)c1ccccc1CC[C@@H](O)[C@H](Cc1ccccc1)NC(=O)COc1c(F)cccc1F` [Example 001214], the IC50 was under 100 nM. For `COc1cccc(OC)c1C(=O)N[C@@H](Cc1ccccc1)[C@H](O)CCc1ccccc1C(=O)NC(C)(C)C` [Example 000966], the IC50 was 100 to 10000 nM. With `CC(C)(C)NC(=O)c1ccccc1CC[C@@H](O)[C@H](Cc1ccccc1)NC(=O)c1ccc(Cl)cc1Cl` [Example 000902] the IC50 was 100 to 10000 nM. For `Cc1c(O)cccc1OCC(=O)N[C@@H](Cc1ccccc1)[C@H](O)CCc1ccccc1C(=O)NC(C)(C)C` [Example 001246], the IC50 was under 100 nM. In the case of `CC(C)(C)NC(=O)c1ccccc1CC[C@@H](O)[C@H](Cc1ccccc1)NC(=O)Cc1ccccc1` [Example 00762], the IC50 is reported as 100 to 10000 nM. `Cc1ccccc1S(=O)(=O)NC(=O)N[C@@H](Cc1ccccc1)[C@H](O)CCc1ccccc1C(=O)NC(C)(C)C` [Example 001014] showed an IC50 of 100 to 10000 nM. `CC(C)(C)NC(=O)c1ccccc1CC[C@@H](O)[C@H](Cc1ccccc1)NC(=O)COc1ccccc1C(F)(F)F` [Example 001204] gave an IC50 of 100 to 10000 nM. For `CC(C)(C)NC(=O)c1ccccc1CC[C@@H](O)[C@H](Cc1ccccc1)NC(=O)O[C@H]1CCOC1` [Example 000180], the IC50 was under 100 nM. Work on `CC(C)NC(=O)N[C@@H](Cc1ccccc1)[C@H](O)CCc1ccccc1C(=O)NC(C)(C)C` [Example 000892] yielded an IC50 of 100 to 10000 nM.
